The results in this text go back to ChEMBL document CHEMBL5465560, “Selectivity Literature for EUbOPEN Chemogenomic Library” (2024).

For series [1], the target named is Dual specificity tyrosine-phosphorylation-regulated kinase 1B (Homo sapiens, UniProt Q9Y463). Briefly: Selectivity interaction (KinomeScan (DiscoverX)) EUB0000595a DYRK1B. The following applies: at 10 µM.
The target in series [2] is Serine/threonine-protein kinase N1 (Homo sapiens, UniProt Q16512). Briefly: Selectivity interaction (KinomeScan (DiscoverX)) EUB0000595a PKN1. The following applies: at 10 µM.
Series [3] has as its target Hepatocyte growth factor receptor (Homo sapiens, UniProt P08581). The settings on record: at 10 µM.
In series [4] the target is Phosphatidylinositol 4,5-bisphosphate 3-kinase catalytic subunit beta isoform (Homo sapiens) (UniProt P42338). Put plainly: Selectivity interaction (ActivX KiNativ screen (ex vivo kinase selectivity in human PBMCs)) EUB0001619a PIK3CB. The following applies: PBMC, at 1 µM. Type of series: cell-based.
Chain of Phosphatidylinositol 4,5-bisphosphate 3-kinase catalytic subunit beta isoform (Homo sapiens) (P42338 whole entry, looked up, canonical isoform): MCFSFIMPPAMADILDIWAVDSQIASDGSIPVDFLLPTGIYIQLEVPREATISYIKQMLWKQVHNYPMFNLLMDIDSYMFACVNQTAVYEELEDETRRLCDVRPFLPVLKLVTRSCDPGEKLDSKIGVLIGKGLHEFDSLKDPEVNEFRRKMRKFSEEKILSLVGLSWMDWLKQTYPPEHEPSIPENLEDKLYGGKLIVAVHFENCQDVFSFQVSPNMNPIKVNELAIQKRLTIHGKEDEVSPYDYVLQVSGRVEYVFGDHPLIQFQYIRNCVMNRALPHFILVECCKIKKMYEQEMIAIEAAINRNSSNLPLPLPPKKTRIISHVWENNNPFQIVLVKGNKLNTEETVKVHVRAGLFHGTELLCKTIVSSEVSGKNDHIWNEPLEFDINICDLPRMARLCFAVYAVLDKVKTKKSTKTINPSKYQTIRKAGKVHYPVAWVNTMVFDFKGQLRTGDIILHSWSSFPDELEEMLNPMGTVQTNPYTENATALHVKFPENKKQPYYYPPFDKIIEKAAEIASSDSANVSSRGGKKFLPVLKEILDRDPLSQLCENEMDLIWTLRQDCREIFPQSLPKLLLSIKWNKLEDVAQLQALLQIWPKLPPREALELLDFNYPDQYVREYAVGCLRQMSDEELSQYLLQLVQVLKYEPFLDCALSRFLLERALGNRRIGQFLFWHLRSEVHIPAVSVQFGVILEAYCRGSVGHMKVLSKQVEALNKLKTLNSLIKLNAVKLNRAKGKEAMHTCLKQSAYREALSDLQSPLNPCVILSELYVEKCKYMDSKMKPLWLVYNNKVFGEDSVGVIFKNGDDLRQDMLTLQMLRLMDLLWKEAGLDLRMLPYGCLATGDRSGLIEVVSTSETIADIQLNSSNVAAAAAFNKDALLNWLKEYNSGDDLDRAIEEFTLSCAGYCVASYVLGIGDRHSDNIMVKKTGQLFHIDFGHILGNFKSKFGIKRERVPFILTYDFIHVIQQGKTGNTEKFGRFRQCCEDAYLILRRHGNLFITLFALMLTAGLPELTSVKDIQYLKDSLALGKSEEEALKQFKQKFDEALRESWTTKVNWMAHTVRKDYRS
The target in series [5] is T1, Serine/threonine-protein kinase Chk1 (Homo sapiens) (UniProt O14757).
T1 sequence (whole entry): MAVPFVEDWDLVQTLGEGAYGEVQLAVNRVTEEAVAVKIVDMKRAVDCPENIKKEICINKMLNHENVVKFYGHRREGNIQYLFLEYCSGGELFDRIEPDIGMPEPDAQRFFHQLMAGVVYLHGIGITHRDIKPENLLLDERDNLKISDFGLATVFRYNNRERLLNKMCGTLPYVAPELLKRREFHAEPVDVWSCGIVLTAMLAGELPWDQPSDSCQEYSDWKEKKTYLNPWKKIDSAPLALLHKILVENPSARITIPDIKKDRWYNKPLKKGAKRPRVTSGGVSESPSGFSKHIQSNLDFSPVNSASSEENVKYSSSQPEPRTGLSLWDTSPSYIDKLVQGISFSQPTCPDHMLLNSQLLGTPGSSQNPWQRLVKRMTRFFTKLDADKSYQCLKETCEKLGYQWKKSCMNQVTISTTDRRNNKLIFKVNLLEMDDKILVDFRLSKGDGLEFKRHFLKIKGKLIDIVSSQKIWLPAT
The settings on record: at 10 µM.

The target in series [6] is T2, Ribosomal protein S6 kinase alpha-1 (Homo sapiens, UniProt Q15418). The settings on record: at 10 µM.
T2 sequence (Q15418 whole entry): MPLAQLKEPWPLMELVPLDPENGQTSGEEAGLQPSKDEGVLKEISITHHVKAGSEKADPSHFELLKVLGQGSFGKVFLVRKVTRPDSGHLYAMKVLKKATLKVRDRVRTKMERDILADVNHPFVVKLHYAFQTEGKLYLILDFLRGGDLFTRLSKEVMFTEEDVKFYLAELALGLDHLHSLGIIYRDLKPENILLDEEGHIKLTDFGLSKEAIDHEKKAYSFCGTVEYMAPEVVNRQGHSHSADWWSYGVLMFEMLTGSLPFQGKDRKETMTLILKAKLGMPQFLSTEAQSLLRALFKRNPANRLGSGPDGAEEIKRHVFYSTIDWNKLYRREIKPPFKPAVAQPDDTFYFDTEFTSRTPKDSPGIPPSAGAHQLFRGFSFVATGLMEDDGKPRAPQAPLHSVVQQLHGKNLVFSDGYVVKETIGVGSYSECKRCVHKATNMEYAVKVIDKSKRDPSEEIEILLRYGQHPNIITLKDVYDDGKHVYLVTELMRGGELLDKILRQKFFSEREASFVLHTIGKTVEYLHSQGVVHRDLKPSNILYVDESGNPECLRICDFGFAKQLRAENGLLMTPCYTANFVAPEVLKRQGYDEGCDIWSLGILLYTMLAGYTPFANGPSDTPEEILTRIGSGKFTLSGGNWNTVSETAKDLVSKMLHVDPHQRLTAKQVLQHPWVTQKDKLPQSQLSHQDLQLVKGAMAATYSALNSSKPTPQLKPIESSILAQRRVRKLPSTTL
Series [7] addresses Cyclin-dependent kinase 16 (Homo sapiens) (UniProt Q00536). Briefly: Selectivity interaction (ActivX KiNativ screen (kinase selectivity in THP-1 cell lysates)) EUB0000639a CDK16. The format is subcellular. The following applies: lysate, at 5 µM.
The next series addresses hERG (KCNH2) (Homo sapiens, UniProt Q12809). Put plainly: Selectivity interaction (Safety Panel 44tm (Eurofins)) EUB0000162b KCNH2. The settings on record: at 10 µM, read-out: % of control.
Series [8] has as its target Homeodomain-interacting protein kinase 2 (Homo sapiens, UniProt Q9H2X6). Put plainly: Selectivity interaction (Ambit KINOMEscan and KiNATiv profiling in Jurkat cells) EUB0000090b HIPK2. The format is cell-based. The following applies: at 1 µM.
Series [9] concerns the target T3, Interleukin-1 receptor-associated kinase 4 (Homo sapiens) (UniProt Q9NWZ3).
T3 sequence (whole entry): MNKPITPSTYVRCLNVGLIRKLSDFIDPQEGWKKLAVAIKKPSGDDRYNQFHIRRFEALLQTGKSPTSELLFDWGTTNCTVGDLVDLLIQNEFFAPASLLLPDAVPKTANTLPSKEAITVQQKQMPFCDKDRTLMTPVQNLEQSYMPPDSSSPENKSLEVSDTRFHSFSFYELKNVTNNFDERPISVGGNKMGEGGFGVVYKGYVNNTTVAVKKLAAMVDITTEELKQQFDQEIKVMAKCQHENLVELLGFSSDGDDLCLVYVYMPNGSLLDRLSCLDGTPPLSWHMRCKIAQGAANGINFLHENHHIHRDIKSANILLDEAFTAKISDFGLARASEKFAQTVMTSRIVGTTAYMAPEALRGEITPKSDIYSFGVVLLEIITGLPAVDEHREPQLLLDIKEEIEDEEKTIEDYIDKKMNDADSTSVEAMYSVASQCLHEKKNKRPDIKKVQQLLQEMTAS
Put plainly: Selectivity interaction (KinomeScan (DiscoverX)) EUB0001049a IRAK4. The following applies: at 1 µM.

Series [10] deals with T4, Serine/threonine-protein kinase 3 (Homo sapiens) (UniProt Q13188).
T4 sequence (whole entry): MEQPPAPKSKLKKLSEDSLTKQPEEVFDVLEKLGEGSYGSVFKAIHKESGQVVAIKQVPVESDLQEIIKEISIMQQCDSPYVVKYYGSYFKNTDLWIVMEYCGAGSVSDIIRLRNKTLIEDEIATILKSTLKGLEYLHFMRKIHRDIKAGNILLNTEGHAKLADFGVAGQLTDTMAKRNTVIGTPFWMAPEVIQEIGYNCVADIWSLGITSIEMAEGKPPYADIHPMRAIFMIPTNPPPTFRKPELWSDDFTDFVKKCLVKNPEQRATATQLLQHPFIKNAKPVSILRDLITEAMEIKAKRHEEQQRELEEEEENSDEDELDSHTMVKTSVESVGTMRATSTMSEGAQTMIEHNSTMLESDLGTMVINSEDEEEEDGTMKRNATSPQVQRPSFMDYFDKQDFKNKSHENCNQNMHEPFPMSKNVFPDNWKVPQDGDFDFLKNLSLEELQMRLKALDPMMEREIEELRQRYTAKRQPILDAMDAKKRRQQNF
Briefly: Selectivity interaction (KinomeScan (DiscoverX)) EUB0001049a STK3. The settings on record: at 1 µM.

Series [11] concerns the target Serine/threonine-protein kinase Nek7 (Homo sapiens) (UniProt Q8TDX7). Briefly: Selectivity interaction (KinomeScan (DiscoverX)) EUB0000618a NEK7. The settings on record: at 10 µM.
For series [12], the target named is Cyclin-dependent kinase 13 (Homo sapiens, UniProt Q14004). Put plainly: Selectivity interaction (KinomeScan (DiscoverX)) EUB0000092b CDK13. The settings on record: at 10 µM.
In series [13] the target is T5, Dual specificity mitogen-activated protein kinase kinase 5 (Homo sapiens) (UniProt Q13163).
T5 sequence (whole entry): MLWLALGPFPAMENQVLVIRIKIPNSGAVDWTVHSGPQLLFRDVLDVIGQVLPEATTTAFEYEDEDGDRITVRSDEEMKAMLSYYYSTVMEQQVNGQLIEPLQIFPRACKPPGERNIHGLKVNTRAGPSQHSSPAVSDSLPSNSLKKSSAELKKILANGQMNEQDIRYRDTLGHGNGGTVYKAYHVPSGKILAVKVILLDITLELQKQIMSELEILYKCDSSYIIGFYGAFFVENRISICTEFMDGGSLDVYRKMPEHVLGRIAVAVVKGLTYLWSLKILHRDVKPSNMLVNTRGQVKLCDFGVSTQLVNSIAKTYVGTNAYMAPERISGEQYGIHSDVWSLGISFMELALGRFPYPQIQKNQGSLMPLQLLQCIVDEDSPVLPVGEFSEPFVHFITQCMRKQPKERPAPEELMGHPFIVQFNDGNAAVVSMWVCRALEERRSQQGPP
Put plainly: Selectivity interaction (KinomeScan (DiscoverX)) EUB0000229b MAP2K5. The following applies: at 10 µM.

For series [14], the target named is T2, Ribosomal protein S6 kinase alpha-1. Put plainly: Selectivity interaction (Kinase panel (KiNativ target engagement assay in Jurkat cells)) EUB0001635a RPS6KA1. The format is cell-based. The settings on record: Selectivity number of off-targets 0.0, Selectivity number of targets 233.0, Source Knowledge https://www.sciencedirect.com/science/article/pii/S2451945619300674?via%3Dihub, at 1 µM.

Chain of Dual specificity tyrosine-phosphorylation-regulated kinase 1B (Q9Y463 whole entry, looked up): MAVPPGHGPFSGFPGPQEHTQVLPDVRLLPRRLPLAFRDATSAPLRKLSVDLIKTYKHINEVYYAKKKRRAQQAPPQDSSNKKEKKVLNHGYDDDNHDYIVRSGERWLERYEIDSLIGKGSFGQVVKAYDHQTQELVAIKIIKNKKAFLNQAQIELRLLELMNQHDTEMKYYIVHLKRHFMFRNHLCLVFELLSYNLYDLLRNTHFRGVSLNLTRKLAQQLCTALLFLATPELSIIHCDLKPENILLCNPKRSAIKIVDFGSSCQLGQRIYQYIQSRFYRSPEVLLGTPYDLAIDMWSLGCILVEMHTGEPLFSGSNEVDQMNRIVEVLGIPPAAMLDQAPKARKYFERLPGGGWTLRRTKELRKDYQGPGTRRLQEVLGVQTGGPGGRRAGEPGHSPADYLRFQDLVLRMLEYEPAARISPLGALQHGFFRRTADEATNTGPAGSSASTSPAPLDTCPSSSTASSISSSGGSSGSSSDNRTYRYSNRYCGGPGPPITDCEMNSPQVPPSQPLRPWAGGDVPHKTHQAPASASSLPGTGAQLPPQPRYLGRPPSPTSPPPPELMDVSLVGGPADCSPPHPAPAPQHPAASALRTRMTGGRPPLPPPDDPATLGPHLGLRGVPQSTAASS
Chain of Hepatocyte growth factor receptor (P08581 whole entry, canonical isoform): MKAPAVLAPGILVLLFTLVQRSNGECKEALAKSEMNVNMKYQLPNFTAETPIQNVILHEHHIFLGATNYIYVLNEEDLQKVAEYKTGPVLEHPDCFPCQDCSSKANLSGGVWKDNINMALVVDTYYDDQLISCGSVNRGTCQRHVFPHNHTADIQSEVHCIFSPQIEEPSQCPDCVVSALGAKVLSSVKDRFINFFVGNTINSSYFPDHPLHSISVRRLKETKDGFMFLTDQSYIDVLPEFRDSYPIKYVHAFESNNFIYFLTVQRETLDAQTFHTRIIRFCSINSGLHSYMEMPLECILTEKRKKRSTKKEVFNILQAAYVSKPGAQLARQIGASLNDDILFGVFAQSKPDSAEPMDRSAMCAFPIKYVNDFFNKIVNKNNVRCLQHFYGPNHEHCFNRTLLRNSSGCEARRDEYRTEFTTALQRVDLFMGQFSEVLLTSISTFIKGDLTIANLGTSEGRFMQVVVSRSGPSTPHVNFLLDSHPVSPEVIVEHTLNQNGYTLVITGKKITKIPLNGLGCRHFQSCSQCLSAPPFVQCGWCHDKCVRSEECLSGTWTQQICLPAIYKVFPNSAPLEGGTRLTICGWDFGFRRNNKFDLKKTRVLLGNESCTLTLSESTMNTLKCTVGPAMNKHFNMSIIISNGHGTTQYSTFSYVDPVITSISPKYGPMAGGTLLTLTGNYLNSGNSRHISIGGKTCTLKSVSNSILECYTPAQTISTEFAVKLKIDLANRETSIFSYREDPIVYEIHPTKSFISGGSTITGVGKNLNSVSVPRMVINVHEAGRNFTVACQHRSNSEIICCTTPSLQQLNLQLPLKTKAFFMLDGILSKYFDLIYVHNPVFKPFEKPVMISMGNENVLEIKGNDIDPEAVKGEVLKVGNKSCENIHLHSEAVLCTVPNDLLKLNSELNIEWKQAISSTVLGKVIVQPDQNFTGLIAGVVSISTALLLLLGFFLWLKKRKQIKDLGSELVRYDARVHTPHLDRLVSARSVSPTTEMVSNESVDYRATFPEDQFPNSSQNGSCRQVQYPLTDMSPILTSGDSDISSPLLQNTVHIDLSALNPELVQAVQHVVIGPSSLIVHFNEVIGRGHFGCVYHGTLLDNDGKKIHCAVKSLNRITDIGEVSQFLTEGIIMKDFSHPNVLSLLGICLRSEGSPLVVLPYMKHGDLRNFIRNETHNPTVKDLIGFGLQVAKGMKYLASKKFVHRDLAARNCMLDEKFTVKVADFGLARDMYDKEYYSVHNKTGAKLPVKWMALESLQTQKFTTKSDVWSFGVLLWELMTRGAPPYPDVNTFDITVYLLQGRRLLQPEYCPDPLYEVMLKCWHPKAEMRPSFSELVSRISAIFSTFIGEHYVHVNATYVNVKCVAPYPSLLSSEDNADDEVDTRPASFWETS
Chain of Cyclin-dependent kinase 16 (Homo sapiens) (Q00536 whole entry): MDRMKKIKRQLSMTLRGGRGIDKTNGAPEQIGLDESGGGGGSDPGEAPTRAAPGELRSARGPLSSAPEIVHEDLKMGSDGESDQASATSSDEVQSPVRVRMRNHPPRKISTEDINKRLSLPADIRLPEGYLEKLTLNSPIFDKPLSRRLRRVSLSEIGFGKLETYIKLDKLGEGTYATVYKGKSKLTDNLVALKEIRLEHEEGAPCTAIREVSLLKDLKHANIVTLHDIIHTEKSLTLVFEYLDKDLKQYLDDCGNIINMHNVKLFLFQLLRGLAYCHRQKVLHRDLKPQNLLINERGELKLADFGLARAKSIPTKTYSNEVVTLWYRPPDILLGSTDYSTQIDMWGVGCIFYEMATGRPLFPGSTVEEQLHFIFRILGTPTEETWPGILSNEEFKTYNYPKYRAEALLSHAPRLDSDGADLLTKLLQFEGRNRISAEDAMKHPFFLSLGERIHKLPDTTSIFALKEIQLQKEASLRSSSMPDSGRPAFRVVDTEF
Chain of Serine/threonine-protein kinase Nek7 (Homo sapiens) (Q8TDX7 whole entry, looked up): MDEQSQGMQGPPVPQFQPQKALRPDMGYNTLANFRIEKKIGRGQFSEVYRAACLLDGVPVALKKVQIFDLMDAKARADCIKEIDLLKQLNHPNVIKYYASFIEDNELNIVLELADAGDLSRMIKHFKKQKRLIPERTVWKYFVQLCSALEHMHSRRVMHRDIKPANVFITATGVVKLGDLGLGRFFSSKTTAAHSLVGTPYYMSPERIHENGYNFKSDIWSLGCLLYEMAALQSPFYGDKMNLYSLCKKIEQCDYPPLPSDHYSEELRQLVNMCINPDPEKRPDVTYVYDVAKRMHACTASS

As to `COCC(=O)NC/C=C/c1ccc2ncnc(Nc3ccc(Oc4ccc(C)nc4)c(C)c3)c2c1` [CP-724714], the % of control in series [1] was 92%; in [2], 100%; in [3], 74%.

Consider `N#Cc1cccc(-c2c[nH]c3ncnc(N4CCOCC4)c23)c1`, for which, in series [4], the % of inhibition is -3%. Regarding `Cc1cc([C@@H](C)Nc2ccccc2C(=O)O)c2nc(N3CCOCC3)cc(=O)n2c1` [AZD-6482], the % of control in series [5] is 100%; in series [6] it was 84%. In the case of `CC[C@@H]1[C@H](F)C(=O)N[C@@H]1COc1nccc2cc(C(N)=O)c(OC)cc12` [ZIMLOVISERTIB], the % of inhibition in series [7] was 41.7%. `CN(C)C(=O)Cn1cc(-c2ccc(-c3cncc4ccccc34)cc2)cn1`: the activity at hERG (KCNH2) was 85%. `CN(C)C/C=C/C(=O)Nc1ccc(C(=O)N2CCCC(Nc3ncc(Cl)c(-c4c[nH]c5ccccc45)n3)C2)cc1` (stereo not given) registered a % of control in series [8] of 70%.

In the case of `COc1cc(Nc2nc(C)cc(-c3cnn4nc(OC)ccc34)n2)cc(C(F)(F)F)c1`, the % of control turned out to be 87% in series [9] and 100% in series [10]. Regarding `O[C@H]1CC[C@H](Nc2ncc3nc(Nc4c(F)cc(F)cc4F)n([C@H]4CCOC4)c3n2)CC1`, the % of control in series [11] was determined as 95%. The molecule `CCC(=O)N1CCN(c2ccc(-n3c(=O)ccc4cnc5ccc(-c6cnc7ccccc7c6)cc5c43)cc2C(F)(F)F)CC1` yielded a % of control in [12] of 80%. For `COc1cc(N(C)c2ccnc3ccc(C(F)(F)F)cc23)cc(OC)c1OC`, in [13], the % binding stood at 86%. `C=CC(=O)Nc1ccc(C(=O)Nc2[nH]nc3c2CN(C(=O)N[C@H](CN(C)C)c2ccccc2)C3(C)C)cc1` had a % of engagement in series [14] of 1.2%.
